A melting point compilation (Tetko et al.; mined from patent text by program, amines drawn as free bases though some values may be those of a salt)

Row | SMILES | melting point
1 | COc1cc(Cl)ccc1C(=O)NC1COCCn2c1nc(-c1ccncn1)cc2=O (racemic) | 274 to 276 °C
2 | Clc1ccc2c(c1)c(-c1ccccc1)nc1nccn12 | 270 to 272 °C
3 | Cc1ccc(-n2nc(C)cc2-c2ccnc(Cl)c2)cc1 | 100 °C
4 | CC(=O)SCCC(=O)N1[C@@H](c2ccccc2O)SC[C@H]1C(=O)N[C@@H](CCC(=O)O)C(=O)O | 93 to 98 °C
5 | Cc1c(F)c(N2CCC(N)C2)c(Cl)c2c1c(=O)c(C(=O)O)cn2C1CC1 (stereo not given) | 124 to 126 °C
6 | Oc1ccc(OCCN2CCCCC2)cc1 | 148 to 150 °C
7 | COc1cc(OC)cc(C2(Cl)C(C)(C)C2(C)C)c1 | 119 to 121 °C
8 | COC(=O)c1cc(-c2ccccc2)c(=O)n2c1-c1sccc1CN2C | 180 to 181 °C
9 | CCCCCc1cc(O)c2c(c1)OC(C)(C)[C@@H]1CCC(=O)C[C@H]21 (relative stereo) | 120 to 134 °C
10 | CC1(C)CCNC(=O)C(Cl)(Cl)C1 | 108 to 110 °C
11 | Cc1cc(Cl)ccc1NS(=O)(=O)c1cc(S(=O)(=O)Nc2ccc(Cl)cc2C)c2cc(O)ccc2c1 | 140 to 142 °C
12 | CC(C)(C)OC(=O)NC1C(=O)N(OCc2ccccc2)C12CCC2 (stereo not given) | 156 to 157 °C
13 | CC(C)CC(NC(=O)C1CCCN1)C(=O)NCC(=O)Oc1c(Cl)c(Cl)c(Cl)c(Cl)c1Cl (stereo not given) | 169 to 171 °C
14 | CCCc1c(COc2ccc(Cc3nnnn3CC(=O)O)cc2)ccc(C(C)=O)c1O | 205 to 210 °C
15 | O=C1c2c(Cl)cccc2-n2cnc(CO)c2C2CCCN12 (stereo not given) | 303 to 305 °C
16 | Cc1cccc(NC(=O)NC2N=C(c3ccccc3F)c3ccccc3N(Cc3cccnc3)C2=O)c1 (racemic) | 242 to 243 °C
17 | CCOC(=O)CN1CCC2(CC1)CC(c1ccc(C#N)cc1)=NO2 | 116 to 118 °C
18 | Fc1ccccc1COC1COC(c2ccco2)OC1 (stereo not given) | 50.5 to 52 °C
19 | CC12CC(c3ccc(N)cc3)(C1)C(=O)NC2=O | 216 °C
20 | CC(=O)Oc1ccc2c(C)cc(=O)oc2c1CC(Br)CBr (stereo not given) | 145 to 148 °C
21 | O=C(NCC1CCN(CCc2ccccn2)CC1)c1ccc2nonc2c1 | 149 to 151 °C
22 | Nc1ccc(Cl)cc1C(=O)NCCCn1cncn1 | 116 to 118 °C

Continued, values first:

Row | melting point | SMILES
23 | 178 to 181 °C | COc1ccc(OCCc2c[nH]cn2)cc1
24 | 149 to 150 °C | COCc1nnc2ccc(-c3cccc(C(F)(F)F)c3)nn12
25 | 220 to 237 °C | CC(C)C1(C)N=C(c2nc3occ([N+](=O)[O-])c3cc2C(=O)O)NC1=O (stereo not given)
26 | 108 to 110 °C | COc1ccc(OC)c2nc(Cl)c(CCCl)cc12
27 | 111 °C | OCC1Cc2cccc(F)c2OC1CO (stereo not given)
28 | 193 to 194 °C | CC(C)(C)N1C(=O)c2cnc(-c3ccccc3)nc2N(C(=O)CN2CCCCC2)c2ccccc21
29 | 167 to 168 °C | CCC(C)C(=O)Nc1c(C(O)(C(F)(F)F)C(F)(F)F)ccc2ccccc12 (stereo not given)
30 | 56 to 57 °C | CNCCCCn1c(-c2ccc(Br)cc2)csc1=Nc1ccccc1
31 | 81 °C | COC(=O)C(Oc1nc(OC)cc(OC)n1)C(OC)(c1ccccc1)c1ccccc1 (stereo not given)
32 | 164 to 167 °C | CC(C)(C)c1cc(-c2nn(C3CCOC3=O)c3ncccc23)cc(C(C)(C)C)c1O (stereo not given)
33 | 300 to 301 °C | CS(=O)(=O)c1ccnc(-c2nc(=O)c3ccccc3s2)c1
34 | 235 to 236 °C | CCc1cc(C)c(Br)c(CC)c1-c1c(O)c(C)nn(C)c1=O
35 | 328 to 329 °C | O=C1C(O)=C(c2ccc3ccccc3c2)C(=O)C(O)=C1c1ccc2ccccc2c1
36 | 200 to 201 °C | CC(C)(C)N1C(=O)C(=O)N(c2ccc(C#N)cc2)C1=S
37 | 96 to 98 °C | CCOc1ccc(O)c(C(C)(C)C)c1
38 | 144 to 146 °C | c1ccc(CN2CCCC3(C2)OC(c2ccccc2)(c2ccccc2)c2ccccc23)cc1 (stereo not given)
39 | 220 to 221 °C | CCCNC(=O)Cn1c(-c2ccc(Cl)cc2)nc2cccnc21
40 | 130 to 132 °C | N#Cc1cccc(Oc2ccc(CBr)cc2)c1C#N
